Paper PMC6749364, “Pharmacokinetics and Tissue Distribution of Alnustone in Rats after Intravenous Administration by Liquid Chromatography-Mass Spectrometry” (Molecules, 2019)

Experiments:
[1] = Tissue distribution study after intravenous administration; assay type: in vivo, Sprague-Dawley rats; settings: rats, i.v. 5 mg/kg; for Kp at 0.5 h / Kp at 1 h / Kp at 4 h / Kp at 2 h: n = 5
Procedure: The rat was sacrificed quickly by decapitation on the ice. The various tissues (heart, liver, spleen, lung, kidney, brain, stomach, intestine) were harvested and rinsed with ice-cold 0.9% NaCl to remove the superficial blood. After being blotted dry with filter paper, each tissue sample was weighed on ice and physiological saline added ([…]) to homogenize. Then, a 100 μL (equivalent to 50 mg) of tissue homogenate was taken and processed using the same method as the plasma samples processing method as shown in the above steps.
The mobile phase consisted of methanol and 0.1% formic acid water using a gradient dilution at a flow rate of 0.3 mL/min. The column temperature was maintained at 30 °C. Alnustone was quantitatively determined with MRM in the positive ion mode, and nitrogen was used to assist nebulization in the ESI source. The MS parameters were set as follows: The ionspray voltage (IS) 5500 V; nebulizer gas (gas 1) 19 arbitrary units; curtain gas (CUR) 10 arbitrary units; collision cell exit potential (CXP) 7.0 V; entrance potential (EP) 10.0 V. The optimization of the MS transitions using the multiple-reaction monitoring (MRM) mode were accomplished as alnustone m/z 262.9→105.2 and IS (caffeine) m/z 195.2→138.0, respectively.
For the tissue distribution study, 20 SD rats were randomly divided into four groups (5 rats for each time point) and fasted for 12 h with free access to water prior to administration. After the rats were tail intravenously administrated of alnustone (5 mg/kg), the tissue specimens (heart, liver, spleen, lung, kidney, brain, stomach and intestine) were collected at 0.5, 1, 2, and 4 h post-dosing, respectively. The blank tissues were prepared separately using drug-free SD rats. The tissue harvesting and homogenizing method were given in Section 3.5. For the plasma and tissue homogenate sample preparation method, also see Section 3.5.

[2] = system: LO-2 (human normal liver cells); parameters: method as in earlier work; settings: LO-2 cell line; cited from earlier work
[3] = Sprague-Dawley, rat, iv, Intestine
[4] = Sprague-Dawley, rat, iv, Kidney
[5] = Sprague-Dawley, rat, iv, Spleen
[6] = Sprague-Dawley, rat, iv, Stomach

With O=C(/C=C/C=C/c1ccccc1)CCc1ccccc1 [alnustone, Alnustone] the Kp at 0.5 h ([1]; Sprague-Dawley, rat, iv, Brain) was 0.11 ± 0.4, the Kp at 1 h ([1]; Sprague-Dawley, rat, iv, Brain) was 0.21 ± 0.56 and the Kp at 4 h ([1]; Sprague-Dawley, rat, iv, Brain, 4 h) was 1.03 ± 0.08. For the same compound, the Kp at 0.5 h ([1]; Sprague-Dawley, rat, iv, Heart) was 0.36 ± 0.06, the Kp at 1 h ([1]; Sprague-Dawley, rat, iv, Heart) was 0.42 ± 0.1 and the Kp at 2 h ([1]; Sprague-Dawley, rat, iv, Heart) was 0.59 ± 0.17. It also gave a Kp at 4 h ([1]; Sprague-Dawley, rat, iv, Heart, 4 h) of 1.78 ± 0.24, a Kp at 0.5 h [1, 3] of 0.39 ± 0.07 and a Kp at 1 h [1, 3] of 0.66 ± 0.12. The Kp at 2 h [1, 3] was 0.88 ± 0.19, the Kp at 4 h ([1]; Sprague-Dawley, rat, iv, Intestine, 4 h) was 1.18 ± 0.2 and the Kp at 0.5 h [1, 4] was 0.58 ± 0.07. For the same compound, the Kp at 1 h [1, 4] was 0.74 ± 0.11, the Kp at 2 h [1, 4] was 1.49 ± 0.27 and the Kp at 4 h ([1]; Sprague-Dawley, rat, iv, Kidney, 4 h) was 1.86 ± 0.18. The Kp at 0.5 h ([1]; Sprague-Dawley, rat, iv, Liver) was 1.28 ± 0.34, the Kp at 1 h ([1]; Sprague-Dawley, rat, iv, Liver) was 1.31 ± 0.18 and the Kp at 2 h ([1]; Sprague-Dawley, rat, iv, Liver) was 1.28 ± 0.29. The Kp at 4 h ([1]; Sprague-Dawley, rat, iv, Liver, 4 h) was 5.48 ± 0.66, the Kp at 0.5 h ([1]; Sprague-Dawley, rat, iv, Lung) was 1.3 ± 0.09 and the Kp at 1 h ([1]; Sprague-Dawley, rat, iv, Lung) was 3.39 ± 0.39. The Kp at 2 h ([1]; Sprague-Dawley, rat, iv, Lung) was 4.55 ± 0.61, the Kp at 4 h ([1]; Sprague-Dawley, rat, iv, Lung, 4 h) was 15.8 ± 1.33 and the Kp at 0.5 h [1, 5] was 0.46 ± 0.06. For the same compound, the Kp at 1 h [1, 5] was 1.24 ± 0.13, the Kp at 2 h [1, 5] was 0.7 ± 0.06 and the Kp at 4 h ([1]; Sprague-Dawley, rat, iv, Spleen, 4 h) was 1.54 ± 0.32. The Kp at 0.5 h [1, 6] was 0.64 ± 0.14, the Kp at 1 h [1, 6] was 0.52 ± 0.11 and the Kp at 2 h [1, 6] was 0.7 ± 0.03. The Kp at 4 h ([1]; Sprague-Dawley, rat, iv, Stomach, 4 h) was 3.66 ± 0.27, the concentration at 4 h ([1]; Sprague-Dawley, rat, iv, brain, 4 h) was 567 ng/mL and the “highest mean concentration in tissue” value ([1]; brain) was 344.27 ng/g. The “time of maximum tissue concentration” value ([1]; brain) was 1 h, the “highest mean concentration in tissue” value ([1]; heart) was 900.97 ng/g and the “highest mean concentration in tissue” value ([1]; intestine) was 1099.14 ng/g. The “time of maximum tissue concentration” value ([1]; intestine) was 1 h, the “highest mean concentration in tissue” value ([1]; kidney) was 1450.43 ng/g and the “highest mean concentration in tissue” value ([1]; liver) was 3199.49 ng/g. The “highest mean concentration in tissue” value ([1]; lung) was 5685.40 ng/g, the “time of maximum tissue concentration” value ([1]; lung) was 1 h and the blood-brain barrier penetration [1] was “could enter the brain through the blood-brain barrier”. The “highest mean concentration in tissue” value ([1]; spleen) was 2077.14 ng/g, the “time of maximum tissue concentration” value ([1]; spleen) was 1 h and the “highest mean concentration in tissue” value ([1]; stomach) was 1588.90 ng/g. For the same compound, the “antitumor activity in vitro” value [2] was “significant antitumor activity”.
